# Values of other authors, collected in patent publication US20070117764A1, “Compositions comprising macrolide t-cell immunomodulators or immunosuppressants in combination with antibacterials” (priority 2003, published 2007).
# System: allogeneic kidney transplantation
# Settings: rat, oral administration, suppression of systemic immune response
structure (smiles),measurement,value
C=CC[C@@H]1/C=C(\C)C[C@H](C)C[C@H](OC)[C@H]2O[C@@](O)(C(=O)C(=O)N3CCCC[C@H]3C(=O)O[C@H](/C(C)=C/[C@@H]3CC[C@@H](O)[C@H](OC)C3)[C@H](C)[C@@H](O)CC1=O)[C@H](C)C[C@@H]2OC [tacrolimus],minimum effective dose (MED),14 mg/kg
